Measured values as given in patent US6054435A, “6-O-substituted macrolides having antibacterial activity” (priority 1999, dated 2000).
In brackets after ≈: the same amount, converted by molar mass.

How the values were obtained:
Test in all cases: in vitro antibacterial activity (MIC), agar dilution
Format in all cases: cell-based
[1] = test system: Candida albicans CCH 442; settings: organism code TT; BHI agar, 35-37° C., 20 to 24 hours; unit assumed
Outline: (§1)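 Steps: dilute compound serially into BHI agar (twelve plates); spot inocula diluted 1:100, or 1:10 for slow-growing Streptococcus; incubate; inspect visually. MIC recorded as lowest level with no growth, slight haze or sparse isolated colonies.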

[2] = test system: Enterococcus faecium ATCC 8043; settings: organism code II; BHI agar, 35-37° C., 20 to 24 hours; unit assumed
Outline: as §1

[3] = test system: Escherichia coli DC-2; settings: organism code SS; BHI agar, 35-37° C., 20 to 24 hours; unit assumed
Outline: as §1

[4] = test system: Escherichia coli JUHL; settings: organism code QQ; BHI agar, 35-37° C., 20 to 24 hours; unit assumed
Outline: as §1

[5] = test system: Escherichia coli SS; settings: organism code RR; BHI agar, 35-37° C., 20 to 24 hours; unit assumed
Outline: as §1

[6] = test system: Haemophilis Influenzae DILL AMP R; settings: organism code WW; BHI agar, 35-37° C., 20 to 24 hours; unit assumed
Outline: as §1

[7] = test system: Micrococcus luteus ATCC 4698; settings: organism code PP; BHI agar, 35-37° C., 20 to 24 hours; unit assumed
Outline: (§2)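 Endpoint: lowest concentration with no growth, slight haze or sparsely isolated colonies at the inoculum spot, judged against a compound-free BHI control. Strains were replicator-inoculated at 1:100 (1:10 for Streptococcus and other slow growers).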

[8] = test system: Micrococcus luteus ATCC 9341; settings: organism code OO; BHI agar, 35-37° C., 20 to 24 hours; unit assumed
Outline: as §2

[9] = test system: Mycobacterium smegmatis ATCC 114; settings: organism code UU; BHI agar, 35-37° C., 20 to 24 hours; unit assumed
Outline: as §1

[10] = test system: Nocardia Asteroides ATCC9970; settings: organism code VV; BHI agar, 35-37° C., 20 to 24 hours; unit assumed
Outline: as §1

[11] = test system: Staphylococcus aureus 1775; settings: organism code GG; BHI agar, 35-37° C., 20 to 24 hours; unit assumed
Outline: as §1

[12] = test system: Staphylococcus aureus A-5278; settings: organism code CC; BHI agar, 35-37° C., 20 to 24 hours; unit assumed
Outline: as §1

[13] = test system: Staphylococcus aureus A5177; settings: organism code BB; BHI agar, 35-37° C., 20 to 24 hours; unit assumed
Outline: as §1

[14] = test system: Staphylococcus aureus ATCC 6538P; settings: organism code AA; BHI agar, 35-37° C., 20 to 24 hours; unit assumed
Outline: as §1

[15] = test system: Staphylococcus aureus CMX 553; settings: organism code FF; BHI agar, 35-37° C., 20 to 24 hours; unit assumed
Outline: as §1

[16] = test system: Staphylococcus aureus CMX 642A; settings: organism code DD; BHI agar, 35-37° C., 20 to 24 hours; unit assumed
Outline: as §1

[17] = test system: Staphylococcus aureus NCTC10649M; settings: organism code EE; BHI agar, 35-37° C., 20 to 24 hours; unit assumed
Outline: as §1

[18] = test system: Staphylococcus epidermidis 3519; settings: organism code HH; BHI agar, 35-37° C., 20 to 24 hours; unit assumed
Outline: as §1

[19] = test system: Streptococcus Pneumonia 5649; settings: organism code ZZA; BHI agar, 35-37° C., 20 to 24 hours; unit assumed
Outline: as §1

[20] = test system: Streptococcus Pneumonia 5979; settings: organism code ZZ; BHI agar, 35-37° C., 20 to 24 hours; unit assumed
Outline: as §1

[21] = test system: Streptococcus Pneumonia ATCC6303; settings: organism code XX; BHI agar, 35-37° C., 20 to 24 hours; unit assumed
Outline: as §1

[22] = test system: Streptococcus Pneumonia GYR 1171; settings: organism code YY; BHI agar, 35-37° C., 20 to 24 hours; unit assumed
Outline: as §1

[23] = test system: Streptococcus agalactiae CMX 508; settings: organism code KK; BHI agar, 35-37° C., 20 to 24 hours; unit assumed
Outline: as §1

[24] = test system: Streptococcus bovis A-5169; settings: organism code JJ; BHI agar, 35-37° C., 20 to 24 hours; unit assumed
Outline: as §1

[25] = test system: Streptococcus pyogenes 930; settings: organism code MM; BHI agar, 35-37° C., 20 to 24 hours; unit assumed
Outline: as §1

[26] = test system: Streptococcus pyogenes EES61; settings: organism code LL; BHI agar, 35-37° C., 20 to 24 hours; unit assumed
Outline: as §1

[27] = test system: Streptococcus pyogenes PIU 2548; settings: organism code NN; BHI agar, 35-37° C., 20 to 24 hours; unit assumed
Outline: as §1

Row | Structure (SMILES) | MIC [1] [µg/mL] | MIC [2] [µg/mL] | MIC [3] [µg/mL] | MIC [4] [µg/mL] | MIC [5] [µg/mL] | MIC [6] [µg/mL] | MIC [7] [µg/mL] | MIC [8] [µg/mL] | MIC [9] [µg/mL] | MIC [10] [µg/mL] | MIC [11] [µg/mL] | MIC [12] [µg/mL] | MIC [13] [µg/mL] | MIC [14] [µg/mL] | MIC [15] [µg/mL] | MIC [16] [µg/mL] | MIC [17] [µg/mL] | MIC [18] [µg/mL] | MIC [19] [µg/mL] | MIC [20] [µg/mL] | other results
1 | CC[C@H]1OC(=O)[C@H](C)C(=O)[C@H](C)[C@@H](O[C@@H]2O[C@H](C)C[C@H](N(C)C)[C@H]2O)[C@](C)(OCC#Cc2ccc(-c3ccc(Cl)s3)s2)C[C@@H](C)C(=O)[C@H](C)[C@H]2NC(=O)O[C@@]21C [Example 26] | > 100 | 0.1 (≈ 0.12 µM) | > 100 | > 100 | 1.56 (≈ 1.87 µM) | 4 (≈ 4.79 µM) | 0.2 (≈ 0.239 µM) | 0.05 (≈ 0.0598 µM) | 0.39 (≈ 0.467 µM) | 0.1 (≈ 0.12 µM) | 12.5 (≈ 15 µM) | 12.5 (≈ 15 µM) | 0.2 (≈ 0.239 µM) | 0.2 (≈ 0.239 µM) | 0.2 (≈ 0.239 µM) | 0.2 (≈ 0.239 µM) | 0.2 (≈ 0.239 µM) | 0.2 (≈ 0.239 µM) | 0.25 (≈ 0.299 µM) | 0.5 (≈ 0.598 µM) | MIC [21]: 0.03 µg/mL (≈ 0.0359 µM); MIC [22]: 0.03 µg/mL (≈ 0.0359 µM); MIC [23]: ≤ 0.005 µg/mL; MIC [24]: 0.05 µg/mL (≈ 0.0598 µM); MIC [25]: 3.1 µg/mL (≈ 3.71 µM); MIC [26]: 0.02 µg/mL (≈ 0.0239 µM); MIC [27]: 0.2 µg/mL (≈ 0.239 µM)
2 | CC[C@H]1OC(=O)[C@H](C)C(=O)[C@H](C)[C@@H](O[C@@H]2O[C@H](C)C[C@H](N(C)C)[C@H]2O)[C@](C)(OCC#Cc2ccc(-c3ncccn3)s2)C[C@@H](C)C(=O)[C@H](C)[C@H]2NC(=O)O[C@@]21C [Example 5] | > 100 | 0.02 (≈ 0.0251 µM) | 25 (≈ 31.4 µM) | 25 (≈ 31.4 µM) | 0.1 (≈ 0.125 µM) | 2 (≈ 2.51 µM) | 0.1 (≈ 0.125 µM) | 0.01 (≈ 0.0125 µM) | 0.78 (≈ 0.979 µM) | 0.01 (≈ 0.0125 µM) | > 100 | > 100 | 0.05 (≈ 0.0627 µM) | 0.02 (≈ 0.0251 µM) | 0.02 (≈ 0.0251 µM) | 0.05 (≈ 0.0627 µM) | 0.05 (≈ 0.0627 µM) | 0.05 (≈ 0.0627 µM) | 0.25 (≈ 0.314 µM) | 0.5 (≈ 0.627 µM) | MIC [21]: 0.03 µg/mL (≈ 0.0376 µM); MIC [22]: 0.03 µg/mL (≈ 0.0376 µM); MIC [23]: 0.01 µg/mL (≈ 0.0125 µM); MIC [24]: ≤ 0.005 µg/mL; MIC [25]: 25 µg/mL (≈ 31.4 µM); MIC [26]: ≤ 0.005 µg/mL; MIC [27]: 0.1 µg/mL (≈ 0.125 µM)
3 | CC[C@H]1OC(=O)[C@H](C)C(=O)[C@H](C)[C@@H](O[C@@H]2O[C@H](C)C[C@H](N(C)C)[C@H]2O)[C@](C)(OCC#Cc2ccc(-c3cccc([N+](=O)[O-])c3)s2)C[C@@H](C)C(=O)[C@H](C)[C@H]2NC(=O)O[C@@]21C [Example 21] | > 100 | 0.05 (≈ 0.0595 µM) | > 100 | > 100 | 0.2 (≈ 0.238 µM) | 8 (≈ 9.52 µM) | 0.05 (≈ 0.0595 µM) | 0.02 (≈ 0.0238 µM) | 0.2 (≈ 0.238 µM) | 0.2 (≈ 0.238 µM) | 100 (≈ 119 µM) | > 100 | 0.05 (≈ 0.0595 µM) | 0.1 (≈ 0.119 µM) | 0.05 (≈ 0.0595 µM) | 0.05 (≈ 0.0595 µM) | 0.1 (≈ 0.119 µM) | 0.2 (≈ 0.238 µM) | 0.5 (≈ 0.595 µM) | 2 (≈ 2.38 µM) | MIC [21]: 0.03 µg/mL (≈ 0.0357 µM); MIC [22]: 0.03 µg/mL (≈ 0.0357 µM); MIC [23]: 0.02 µg/mL (≈ 0.0238 µM); MIC [24]: 0.02 µg/mL (≈ 0.0238 µM); MIC [25]: 0.78 µg/mL (≈ 0.929 µM); MIC [26]: 0.02 µg/mL (≈ 0.0238 µM); MIC [27]: 0.2 µg/mL (≈ 0.238 µM)
